Key:
[1] = system: Human large cell immunoblastic lymphoma cell line SR; assay: Inhibition of SR cell proliferation (CellTiter luminescent viability); format: cell-based; settings: Table IE1, CDK4/6 inhibitor-based, 96 hours, read-out: Inhibitory activity (IC50, nM) on tumor cell proliferation, SR
Method in brief: (§1)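 Cells are seeded in 96-well plates, cultured at 37 °C, 5% CO2, and treated next day with 5-fold serial compound dilutions (stock series from 2000 μM; 0.5 μL into 100 μL medium). Viability is read by CellTiter-Meiluncell luminescence after the set exposure, and IC50 is taken from growth-inhibition curves.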

[2] = system: Human myeloid monocytic leukemia cell line (MV-4-11); assay: Inhibition of MV-4-11 cell proliferation (CellTiter luminescent viability); format: cell-based; settings: for IC50: Table IE1, CDK4/6 inhibitor-based, MV-4-11, 96 hours, read-out: Inhibitory activity (IC50, nM) on tumor cell proliferation, MV-4-11
Method in brief: as §1

[3] = system: Human acute lymphocytic leukemia T lymphocytes cell line (CCRF-CEM); assay: Inhibition of CCRF-CEM cell proliferation (CellTiter luminescent viability); format: cell-based; settings: Table IE1, CDK4/6 inhibitor-based, 96 hours, read-out: Inhibitory activity (IC50, nM) on tumor cell proliferation, CCRF-CEM
[4] = system: Human breast cancer cell line MCF-7; assay: Inhibition of MCF-7 cell proliferation (CellTiter luminescent viability); settings: Table IE1, CDK4/6 inhibitor-based; MCF-7, 96 hours; read-out: Inhibitory activity (IC50, nM) on tumor cell proliferation, MCF-7
Experimental: The tumor cells used herein were cultured in a cell culture medium listed in table 3 at 37 °C in an incubator with 5% CO2. Prior to experimentation, all cell lines used were correctly identified by STR profiling, and tested negative for mycoplasma contamination using a mycoplasma detection kit through routine screenings.
The IC50 values of the compounds of the present disclosure (including the compounds in Table 1, Table 2, and Examples 1-468) were determined using the CellTiter-Meiluncell Luminescent Cell Viability Assay Kit from Dalian Meilun Biotech Co., Ltd. The detailed procedure is as follows: Tumor cells were seeded in 96-well cell culture plates at the densities specified in Table 4. On the following day, the test compounds of the present disclosure were subjected to serial dilution. The dilution can be performed according to one of the following two methods: • (1) The first dilution method: The test compounds of the present disclosure (including the compounds in Table 1, Table 2, and Examples 1-468) were subjected to 5-fold serial dilutions starting from a highest concentration of 2000 μM, resulting in a total of 9 concentrations from high to low (2000, 400, 80, 16, 3.2, 0.64, 0.128, 0.0256, 0.00512 μM). Subsequently, 0.5 μL of the test compound dilution was transferred into the 96-well plate containing the cells, with each well containing 100 μL of cell culture medium. […] Into the 96-well plate, the diluted test compounds and corresponding detection reagents were added, resulting in final test compound concentrations of 500 nM and 10 nM, respectively. The experimental procedure is described below using the diluted 2 μM test compound as an example.
0.5 μL of the aforementioned diluted compound of the present disclosure (including the compounds in Table 1, Table 2, and Examples 1-468) was added to the seeded cells in 100 μL of medium, yielding a final test compound concentration of 10 nM. After the cells were treated with the compounds of the present disclosure for a specified period, the cell viability assay reagent was added to the culture medium according to the kit's instructions to determine cell viability. […] All controls were treated using the same procedure as the compounds of the present disclosure. The growth inhibition curves for the compounds of the present disclosure were plotted using Prism GraphPad software, and the IC50 values were calculated therefrom.

[5] = system: Human Acute T Lymphoblastic Leukemia Cells (Molt-4); assay: Inhibition of Molt-4 cell proliferation (CellTiter luminescent viability); format: cell-based; settings: Table IE1, CDK4/6 inhibitor-based; Molt-4, 96 hours; read-out: Inhibitory activity (IC50, nM) on tumor cell proliferation, Molt-4
CDK4 = target: T1, CDK4 (Homo sapiens, UniProt P11802+Q96SW2); assay: Western blot degradation of CDK4; format: cell-based; settings: MDA-MB-231 Cell; 24 hours
T1 construct: expression of target proteins in cells; endogenous in cells
Method in brief: (§2)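 Compound-treated cells harvested; lysates denatured 5 min at 95 °C, run on SDS-PAGE, blotted to NC membrane, blocked 1 h RT, probed with antibodies. Densitometry vs DMSO → DC50; target normalised to internal control → % remaining, degradation = 1 − remaining.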

CDK6 = target: T2, CDK6 (Homo sapiens, UniProt Q00534+Q96SW2); assay: Western blot degradation of CDK6; format: cell-based; settings: MDA-MB-231 Cell; 24 hours
T2 construct: expression of target proteins in cells; endogenous in cells
Method in brief: as §2

Tau = target: T3, Tau (Homo sapiens, UniProt P10636); assay: Western blot degradation of Tau; format: cell-based; settings: H4 Cell; 24 hours
T3 construct: endogenous in cells
Experimental: Conventional Western blot assay was performed to evaluate the effects of the compounds of the present disclosure on the expression of target proteins in cells.
(1) Cell Seeding and Protein Harvesting: The selected cells were processed according to the cell seeding procedure and protein harvesting procedure in Table II-2.
(2) To the collected supernatant, 5×SDS sample loading buffer was added, followed by denaturation at 95 °C for 5 minutes. The denatured samples were then separated by SDS-PAGE electrophoresis on a polyacrylamide gel. Proteins were transferred to a nitrocellulose membrane (0.45 μm NC membrane), blocked with blocking buffer at room temperature for 1 hour, and subjected to antibody incubation and development procedures according to the antibody manufacturer's instructions (Cell Signaling Technology).
Half-Maximal Degradation Concentration value (the drug concentration required for degrading proteins by 50%, abbreviated as DC50) reads method: comparing the grayscale values of Western blot bands from drug-treated samples with those from blank DMSO-treated controls, and identifying the drug concentration range at which the grayscale value is half that of the DMSO-treated control bands.
DC50 values can be calculated using ImageJ software to measure grayscale values of Western blot bands from drug-treated samples. The concentration-response curve is fitted to estimate the drug concentration corresponding to half the grayscale value.
Target protein remaining (%) refers to the percentage of target protein remaining in cells after treatment with protein degrader compounds.
Calculation method for target protein remaining (%): Use ImageJ software to measure grayscale values of Western blot bands from drug (protein degrader)-treated samples. The grayscale value of drug-treated bands is divided by that of internal control protein bands, and the resulting quotient is normalized to obtain the relative percentage of remaining target protein after protein degrader treatment.
Target protein degradation rate (%)=1−target protein remaining (%).

[6] = system: Human lung cancer cell line (H292); assay: Inhibition of H292 cell proliferation (CellTiter luminescent viability); format: cell-based; settings: NCI-H292, Table IE2, CDK4/6 inhibitor-based, 96 hours

T3 sequence (P10636 whole entry): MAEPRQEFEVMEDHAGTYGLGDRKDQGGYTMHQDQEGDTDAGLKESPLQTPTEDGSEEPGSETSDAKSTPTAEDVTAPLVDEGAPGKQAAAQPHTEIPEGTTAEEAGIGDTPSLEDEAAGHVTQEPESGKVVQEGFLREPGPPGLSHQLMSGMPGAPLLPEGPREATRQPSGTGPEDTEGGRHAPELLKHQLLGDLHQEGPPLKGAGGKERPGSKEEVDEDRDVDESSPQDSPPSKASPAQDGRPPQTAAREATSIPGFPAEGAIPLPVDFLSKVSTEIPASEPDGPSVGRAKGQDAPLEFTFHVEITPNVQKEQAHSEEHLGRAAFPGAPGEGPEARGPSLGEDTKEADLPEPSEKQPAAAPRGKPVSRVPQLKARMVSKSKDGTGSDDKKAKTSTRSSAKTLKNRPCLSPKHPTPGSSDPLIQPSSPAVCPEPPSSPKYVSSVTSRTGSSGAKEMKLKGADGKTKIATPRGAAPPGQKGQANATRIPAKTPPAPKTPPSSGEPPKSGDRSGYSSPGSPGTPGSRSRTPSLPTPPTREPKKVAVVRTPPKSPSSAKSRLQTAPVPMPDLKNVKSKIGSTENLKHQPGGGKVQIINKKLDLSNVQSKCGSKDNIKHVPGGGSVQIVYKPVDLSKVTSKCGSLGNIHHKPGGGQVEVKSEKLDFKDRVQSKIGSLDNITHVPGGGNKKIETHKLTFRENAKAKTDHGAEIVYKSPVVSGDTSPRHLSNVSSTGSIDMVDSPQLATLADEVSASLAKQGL
T2 sequence (Q00534 whole entry): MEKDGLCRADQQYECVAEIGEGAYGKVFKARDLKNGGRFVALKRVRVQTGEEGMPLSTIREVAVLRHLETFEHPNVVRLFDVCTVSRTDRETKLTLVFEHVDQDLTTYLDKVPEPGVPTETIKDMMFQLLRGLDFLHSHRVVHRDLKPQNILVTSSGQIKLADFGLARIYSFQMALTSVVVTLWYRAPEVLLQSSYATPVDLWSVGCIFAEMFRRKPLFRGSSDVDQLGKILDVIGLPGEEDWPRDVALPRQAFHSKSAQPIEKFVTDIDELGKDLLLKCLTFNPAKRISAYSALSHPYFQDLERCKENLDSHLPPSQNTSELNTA
T2 sequence (Q96SW2 whole entry): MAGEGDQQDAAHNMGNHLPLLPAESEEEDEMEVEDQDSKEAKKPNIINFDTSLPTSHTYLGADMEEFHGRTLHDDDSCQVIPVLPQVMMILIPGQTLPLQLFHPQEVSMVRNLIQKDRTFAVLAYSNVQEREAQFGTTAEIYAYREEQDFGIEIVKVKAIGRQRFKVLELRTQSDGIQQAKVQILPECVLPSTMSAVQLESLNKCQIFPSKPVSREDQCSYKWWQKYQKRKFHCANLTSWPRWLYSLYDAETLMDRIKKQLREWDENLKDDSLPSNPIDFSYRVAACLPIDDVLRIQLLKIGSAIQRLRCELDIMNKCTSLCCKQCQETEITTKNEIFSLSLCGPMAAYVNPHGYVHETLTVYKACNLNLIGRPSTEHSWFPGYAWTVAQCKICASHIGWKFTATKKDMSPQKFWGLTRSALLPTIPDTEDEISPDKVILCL
T2 sequence (Q16531 whole entry partner): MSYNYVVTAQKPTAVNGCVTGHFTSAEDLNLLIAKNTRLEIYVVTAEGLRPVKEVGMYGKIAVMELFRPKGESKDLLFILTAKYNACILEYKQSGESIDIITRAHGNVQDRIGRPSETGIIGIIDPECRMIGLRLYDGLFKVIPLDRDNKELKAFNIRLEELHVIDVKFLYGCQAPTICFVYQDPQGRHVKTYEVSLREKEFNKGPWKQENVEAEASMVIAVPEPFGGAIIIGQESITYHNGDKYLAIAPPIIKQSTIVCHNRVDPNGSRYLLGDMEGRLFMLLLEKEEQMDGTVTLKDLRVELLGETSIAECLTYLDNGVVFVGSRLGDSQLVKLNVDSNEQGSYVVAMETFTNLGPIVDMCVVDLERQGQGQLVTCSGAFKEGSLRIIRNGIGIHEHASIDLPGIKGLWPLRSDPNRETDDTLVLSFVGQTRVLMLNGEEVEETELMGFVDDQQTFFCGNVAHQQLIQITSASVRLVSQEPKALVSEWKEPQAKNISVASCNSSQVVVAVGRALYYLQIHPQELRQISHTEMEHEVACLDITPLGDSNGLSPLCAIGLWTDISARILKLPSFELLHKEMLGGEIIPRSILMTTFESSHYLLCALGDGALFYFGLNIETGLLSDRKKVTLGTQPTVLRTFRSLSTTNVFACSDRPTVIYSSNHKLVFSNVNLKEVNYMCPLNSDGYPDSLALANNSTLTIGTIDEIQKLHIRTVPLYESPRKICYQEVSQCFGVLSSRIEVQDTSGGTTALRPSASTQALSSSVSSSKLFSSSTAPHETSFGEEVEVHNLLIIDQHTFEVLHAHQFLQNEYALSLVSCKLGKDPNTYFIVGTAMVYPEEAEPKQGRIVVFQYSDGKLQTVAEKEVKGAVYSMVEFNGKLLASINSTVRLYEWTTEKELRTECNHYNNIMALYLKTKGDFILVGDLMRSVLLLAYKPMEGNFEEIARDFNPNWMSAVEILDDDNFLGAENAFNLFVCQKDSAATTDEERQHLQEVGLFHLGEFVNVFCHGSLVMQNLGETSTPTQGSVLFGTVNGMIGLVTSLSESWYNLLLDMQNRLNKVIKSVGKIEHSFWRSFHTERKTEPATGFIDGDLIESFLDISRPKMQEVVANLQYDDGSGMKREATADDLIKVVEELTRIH
T1 sequence (P11802 whole entry): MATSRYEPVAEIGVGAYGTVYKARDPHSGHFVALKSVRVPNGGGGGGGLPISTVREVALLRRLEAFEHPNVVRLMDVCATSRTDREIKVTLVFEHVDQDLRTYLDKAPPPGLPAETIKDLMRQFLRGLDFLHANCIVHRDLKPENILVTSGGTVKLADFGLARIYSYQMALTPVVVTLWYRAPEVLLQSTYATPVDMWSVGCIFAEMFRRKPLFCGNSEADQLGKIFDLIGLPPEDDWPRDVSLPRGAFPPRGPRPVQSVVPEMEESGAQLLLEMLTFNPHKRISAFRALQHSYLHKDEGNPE
T1 sequence (Q96SW2 whole entry): as the sequence (Q96SW2 whole entry) above
T1 sequence (Q16531 whole entry partner): as the sequence (Q16531 whole entry partner) above

Structure (SMILES)	IC50 [1]	IC50 [2]	IC50 [3]	IC50 [4]	IC50 [5]	Degradation of substrate protein Tau (substrate protein remaining %) (Tau)	also measured
Cc1nc2c(F)cc(-c3nc(Nc4ccc(N5CCN(Cc6ccc7c(c6)CN(N6CCC(=O)NC6=O)C7=O)CC5)cn4)ncc3F)cc2n1C(C)C [GT-06672, 1-(5-((4-(6-((5-fluoro-4-(4-fluoro-1-isopropyl-2-methyl-1H-benzo[d]imidazol-6-yl)pyrimidin-2-yl)amino)pyridin-3-yl)piperazin-1-yl)methyl)-1-oxoisoindolin-2-yl)dihydropyrimidine-2,4 (1H,3H)-dione]	100 to 300 nM	10 to 50 nM	400 to 800 nM	100 to 300 nM	–	–	–
Cc1nc2c(F)cc(-c3nc(Nc4ccc(N5CCC(N6CCN(Cc7ccc8c(c7)CN(N7CCC(=O)NC7=O)C8=O)CC6)CC5)cn4)ncc3F)cc2n1C(C)C [GT-06736, 1-(5-((4-(1-(6-((5-fluoro-4-(4-fluoro-1-isopropyl-2-methyl-1H-benzo[d]imidazol-6-yl)pyrimidin-2-yl)amino)pyridin-3-yl)piperidin-4-yl)piperazin-1-yl)methyl)-1-oxoisoindolin-2-yl)dihydropyrimidine-2,4 (1H,3H)-dione]	10 to 50 nM	10 to 50 nM	100 to 300 nM	50 to 100 nM	100 to 300 nM	–	Degradation of substrate protein CDK4 (substrate protein remaining %) (CDK4): B (80%<substrate protein remaining %≤100%); Degradation of substrate protein CDK6 (substrate protein remaining %) (CDK6): A (0%≤substrate protein remaining %≤80%)
Cc1nc2c(F)cc(-c3nc(Nc4ccc(N5CCC(N(C)Cc6ccc7c(c6)CN(N6CCC(=O)NC6=O)C7=O)CC5)cn4)ncc3F)cc2n1C(C)C [GT-06837, 1-(5-(((1-(6-((5-fluoro-4-(4-fluoro-1-isopropyl-2-methyl-1H-benzo[d]imidazol-6-yl)pyrimidin-2-yl)amino)pyridin-3-yl)piperidin-4-yl)(methyl)amino)methyl)-1-oxoisoindolin-2-yl)dihydropyrimidine-2,4 (1H,3H)-dione]	10 to 50 nM	10 to 50 nM	100 to 300 nM	100 to 300 nM	100 to 300 nM	–	Degradation of substrate protein CDK4 (substrate protein remaining %) (CDK4): A (0%≤substrate protein remaining %≤80%); Degradation of substrate protein CDK6 (substrate protein remaining %) (CDK6): A (0%≤substrate protein remaining %≤80%)
O=C1CCN(N2C(=O)c3ccc(CN4CCN(C5CCN(c6ccn7c(n6)nc6ccccc67)CC5)CC4)cc3C2=O)C(=O)N1 [GT-08568, 5-((4-(1-(benzo[4,5]imidazo[1,2-a]pyrimidin-2-yl)piperidin-4-yl)piperazin-1-yl)methyl)-2-(2,4-dioxotetrahydropyrimidin-1(2H)-yl)isoindoline-1,3-dione]	–	–	–	–	–	A (0%≤substrate protein remaining %≤80%)	–
Cn1ncc(Cl)c1-c1cc(C(=O)N[C@H](CNCC2CCN(c3cccc4c3C(=O)N(N3CCC(=O)NC3=O)C4=O)CC2)Cc2ccc(F)c(F)c2)oc1Cl [GT-08589, (S)-5-chloro-4-(4-chloro-1-methyl-1H-pyrazol-5-yl)-N-(1-(3,4-difluorophenyl)-3-(((1-(2-(2,4-dioxotetrahydropyrimidin-1(2H)-yl)-1,3-dioxoisoindolin-4-yl)piperidin-4-yl)methyl)amino)propan-2-yl) furan-2-carboxamide]	–	–	–	–	–	A (0%≤substrate protein remaining %≤80%)	–
Cn1ncc(Cl)c1-c1cc(C(=O)N[C@@H](Cc2ccc(F)c(F)c2)CN2CCN(CC3CCN(c4cccc5c4C(=O)N(N4CCC(=O)NC4=O)C5=O)CC3)CC2)oc1Cl [GT-08590, (S)-5-chloro-4-(4-chloro-1-methyl-1H-pyrazol-5-yl)-N-(1-(3,4-difluorophenyl)-3-(4-((1-(2-(2,4-dioxotetrahydropyrimidin-1(2H)-yl)-1,3-dioxoisoindolin-4-yl)piperidin-4-yl)methyl)piperazin-1-yl)propan-2-yl) furan-2-carboxamide]	–	–	–	–	–	A (0%≤substrate protein remaining %≤80%)	–
Cn1ncc(Cl)c1-c1cc(C(=O)N[C@@H](Cc2cccc(F)c2)CN2CCN(CC3CCN(c4cccc5c4C(=O)N(N4CCC(=O)NC4=O)C5=O)CC3)CC2)sc1Cl [GT-08591, (S)-5-chloro-4-(4-chloro-1-methyl-1H-pyrazol-5-yl)-N-(1-(4-((1-(2-(2,4-dioxotetrahydropyrimidin-1(2H)-yl)-1,3-dioxoisoindolin-4-yl)piperidin-4-yl)methyl)piperazin-1-yl)-3-(3-fluorophenyl)propan-2-yl)thiophene-2-carboxamide]	–	–	–	–	–	A (0%≤substrate protein remaining %≤80%)	–
O=C1CCN(N2C(=O)c3ccc(N4CCN(CC5CCN(c6ccn7c(n6)nc6ccccc67)CC5)CC4)c(F)c3C2=O)C(=O)N1 [GT-08824, 5-(4-((1-(benzo[4,5]imidazo[1,2-a]pyrimidin-2-yl)piperidin-4-yl)methyl)piperazin-1-yl)-2-(2,4-dioxotetrahydropyrimidin-1(2H)-yl)-4-fluoroisoindoline-1,3-dione]	–	–	–	–	–	A (0%≤substrate protein remaining %≤80%)	–
CC(=O)c1c(C)c2cnc(Nc3ccc(N4CCNCC4)cn3)nc2n(C2CCCC2)c1=O [Palbociclib, reference compound]	1000 to 5000 nM	300 to 400 nM	1000 to 5000 nM	1000 to 5000 nM	1000 to 5000 nM	–	inhibition at 0.01 µM ([6]; H292, 10 nM, read-out: Inhibition Rate at 10 nM (%)): 10 to 15%; inhibition at 0.5 µM ([6]; H292, 500 nM, read-out: Inhibition Rate at 500 nM (%)): 25 to 30%
CN(C)C(=O)c1cc2cnc(Nc3ccc(N4CCNCC4)cn3)nc2n1C1CCCC1 [Ribociclib, reference compound]	5000 to 10000 nM	5000 to 10000 nM	1000 to 5000 nM	1000 to 5000 nM	> 10000 nM	–	Inhibition Rate at 10 nM (%) ([2]; Table IE3, CDK4/6 inhibitor-based, MV-4-11, 10 nM, 96 hours): IEb2 (5% ≤ IEb2 < 10%); Inhibition Rate at 500 nM (%) ([2]; Table IE3, CDK4/6 inhibitor-based, MV-4-11, 500 nM, 96 hours): IEb7 (30% ≤ IEb7 < 35%)
